Laboratory results: the supplement of paper PMC10307832

How the values were obtained:
Assay in all cases: relative viability (nuclei count vs DMSO), 5 days (fraction); higher = more cells survive
Linsitinib + Olaparib = compound: C[C@]1(O)C[C@@H](c2nc(-c3ccc4ccc(-c5ccccc5)nc4c3)c3c(N)nccn32)C1 [Linsitinib] + O=C(c1cc(Cc2n[nH]c(=O)c3ccccc23)ccc1F)N1CCN(C(=O)C2CC2)CC1 [Olaparib] (partner 8 µM)
Method in brief: (§1)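 Relative viability was taken as the ratio of nuclei in treated wells to nuclei in vehicle wells. Lung cancer cell lines in 1536-well plates received compounds by pin tool one day after seeding, either one drug alone or a fixed anchor-drug dose plus five library-drug doses (not always all listed) in √10 steps. Nuclei were counted on 4× images after 5 days of treatment, and values are medians of duplicate plates.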

Linsitinib + Crizotinib = compound: C[C@]1(O)C[C@@H](c2nc(-c3ccc4ccc(-c5ccccc5)nc4c3)c3c(N)nccn32)C1 [Linsitinib] + C[C@@H](Oc1cc(-c2cnn(C3CCNCC3)c2)cnc1N)c1c(Cl)ccc(F)c1Cl [Crizotinib] (partner 1 µM)
Method in brief: as §1

Linsitinib + Trametinib = compound: C[C@]1(O)C[C@@H](c2nc(-c3ccc4ccc(-c5ccccc5)nc4c3)c3c(N)nccn32)C1 [Linsitinib] + CC(=O)Nc1cccc(-n2c(=O)n(C3CC3)c(=O)c3c(Nc4ccc(I)cc4F)n(C)c(=O)c(C)c32)c1 [Trametinib] (partner 0.02 µM)
Method in brief: as §1

Ispinesib + Foretinib = compound: Cc1ccc(C(=O)N(CCCN)[C@@H](c2nc3cc(Cl)ccc3c(=O)n2Cc2ccccc2)C(C)C)cc1 [Ispinesib] + COc1cc2c(Oc3ccc(NC(=O)C4(C(=O)Nc5ccc(F)cc5)CC4)cc3F)ccnc2cc1OCCCN1CCOCC1 [Foretinib] (partner 0.25 µM)
Method in brief: as §1

Cell Line	relative viability (Linsitinib + Olaparib; first compound 0.01 µM)	relative viability (Linsitinib + Olaparib; first compound 0.03162 µM)	relative viability (Linsitinib + Olaparib; first compound 0.1 µM)	relative viability (Linsitinib + Olaparib; first compound 0.3162 µM)	relative viability (Linsitinib + Olaparib; first compound 1 µM)	relative viability (Linsitinib + Crizotinib; first compound 0.01 µM)	relative viability (Linsitinib + Crizotinib; first compound 0.03162 µM)	relative viability (Linsitinib + Crizotinib; first compound 0.1 µM)	relative viability (Linsitinib + Crizotinib; first compound 0.3162 µM)	relative viability (Linsitinib + Crizotinib; first compound 1 µM)	relative viability (Linsitinib + Trametinib; first compound 0.01 µM)	relative viability (Linsitinib + Trametinib; first compound 0.03162 µM)	relative viability (Linsitinib + Trametinib; first compound 0.1 µM)	relative viability (Linsitinib + Trametinib; first compound 0.3162 µM)	relative viability (Linsitinib + Trametinib; first compound 1 µM)	relative viability (Ispinesib + Foretinib; first compound 0.001 µM)	relative viability (Ispinesib + Foretinib; first compound 0.003162 µM)	relative viability (Ispinesib + Foretinib; first compound 0.01 µM)	relative viability (Ispinesib + Foretinib; first compound 0.03162 µM)	relative viability (Ispinesib + Foretinib; first compound 0.1 µM)
201T	0.874	0.61	0.84	0.676	0.862	1.02	1.03	1.07	1.11	1.01	0.7	0.736	0.702	0.72	0.753	1.26	1.24	1.08	0.962	0.214
A549	0.344	0.376	0.384	0.244	0.195	0.685	0.771	0.684	0.623	0.473	–	–	–	–	–	1.13	1.19	1.2	0.757	0.0545
A-427	0.71	0.73	0.75	–	0.584	0.872	0.779	1.04	–	0.726	0.779	0.69	0.707	–	0.626	1.06	1.22	1.16	1.07	0.762
ABC-1	0.859	1.04	0.785	1.09	0.626	1.26	1.01	1.01	0.614	0.905	–	–	–	–	–	1.37	1.35	1.11	0.507	0.382
BEN	1.03	0.987	1.17	0.686	0.953	0.767	1.01	0.993	0.611	0.826	1.12	1.02	1.03	0.869	1.11	0.674	0.96	0.686	0.342	0.201
CAL-12T	0.79	0.899	0.784	0.689	0.713	0.641	0.596	0.625	0.556	0.467	0.347	0.364	0.292	0.28	0.318	1.2	1.06	1.31	0.938	0.197
COR-L23	0.375	0.292	0.346	0.299	0.29	0.611	0.672	0.742	0.556	0.658	0.623	0.505	0.548	0.475	0.507	0.959	1.03	1.16	0.412	0.146
COR-L 105	0.762	0.635	0.685	0.538	0.516	0.938	0.7	0.845	0.631	0.471	0.427	0.448	0.441	0.412	0.389	1.46	1.01	1.03	0.468	0.345
Calu-6	0.537	0.46	0.542	0.501	0.458	0.79	0.701	0.837	0.717	0.708	–	–	–	–	–	0.981	0.887	0.854	0.39	0.125
ChaGo-K-1	0.426	0.404	0.401	–	0.365	1.08	1.07	1.14	0.812	1.04	0.947	0.973	0.892	–	0.961	0.909	0.867	0.993	0.926	0.629
EBC-1	0.664	0.851	0.703	0.623	0.691	0.168	0.173	0.212	0.197	0.193	–	–	–	–	–	0.111	0.101	0.109	0.0927	0.0893
EKVX	–	0.861	0.951	0.489	0.648	0.895	0.938	0.99	0.795	0.943	–	0.321	0.436	0.234	0.294	0.897	0.85	1.05	0.604	0.275
EMC-BAC-2	0.478	0.601	0.47	0.348	0.37	0.8	0.738	0.696	0.517	0.688	0.93	0.939	0.82	0.575	0.593	1.03	0.621	0.997	0.818	0.39
EPLC-272H	1.42	0.694	0.841	0.469	0.479	0.774	0.995	0.873	–	0.733	0.245	0.25	0.296	–	0.26	0.793	0.657	0.659	0.322	0.23
H3255	0.6	0.604	0.564	0.456	0.5	0.84	0.817	0.95	0.773	0.813	–	0.664	0.593	0.528	0.579	0.932	0.869	0.995	0.508	0.158
HARA	0.631	0.396	0.69	–	0.935	1.03	1.24	1.21	0.696	1.14	0.448	0.809	0.878	–	0.623	1.18	0.931	0.976	1.04	0.132
HCC-15	0.697	0.938	0.759	0.364	0.655	0.833	0.724	0.837	0.52	0.696	0.376	0.376	0.286	0.264	0.287	1.1	1.02	1.1	0.561	0.188
HCC-44	1.01	0.924	1	0.858	0.916	0.704	0.78	0.739	0.56	0.612	0.94	1.04	1.01	0.716	0.923	–	–	–	–	–
HCC-78	–	1	0.706	0.916	0.506	0.298	0.356	0.278	0.338	0.265	–	0.913	0.698	0.736	0.578	0.558	0.567	0.542	0.525	0.559

Cell Line	relative viability (Linsitinib + Olaparib; first compound 0.01 µM)	relative viability (Linsitinib + Olaparib; first compound 0.03162 µM)	relative viability (Linsitinib + Olaparib; first compound 0.1 µM)	relative viability (Linsitinib + Olaparib; first compound 0.3162 µM)	relative viability (Linsitinib + Olaparib; first compound 1 µM)	relative viability (Linsitinib + Crizotinib; first compound 0.01 µM)	relative viability (Linsitinib + Crizotinib; first compound 0.03162 µM)	relative viability (Linsitinib + Crizotinib; first compound 0.1 µM)	relative viability (Linsitinib + Crizotinib; first compound 0.3162 µM)	relative viability (Linsitinib + Crizotinib; first compound 1 µM)	relative viability (Linsitinib + Trametinib; first compound 0.01 µM)	relative viability (Linsitinib + Trametinib; first compound 0.03162 µM)	relative viability (Linsitinib + Trametinib; first compound 0.1 µM)	relative viability (Linsitinib + Trametinib; first compound 0.3162 µM)	relative viability (Linsitinib + Trametinib; first compound 1 µM)	relative viability (Ispinesib + Foretinib; first compound 0.001 µM)	relative viability (Ispinesib + Foretinib; first compound 0.003162 µM)	relative viability (Ispinesib + Foretinib; first compound 0.01 µM)	relative viability (Ispinesib + Foretinib; first compound 0.03162 µM)	relative viability (Ispinesib + Foretinib; first compound 0.1 µM)
HCC-366	0.354	0.219	0.481	0.332	0.265	0.542	0.487	0.583	0.433	0.429	0.369	0.381	0.402	0.317	0.202	0.895	0.959	0.994	0.913	0.0534
HCC-827	0.759	0.377	0.606	–	0.625	0.997	1.03	0.932	–	0.948	0.526	0.616	0.522	–	0.602	1.04	1.02	1.05	0.936	0.684
HOP-62	–	0.247	0.524	0.244	0.393	0.959	1.02	0.798	–	0.954	0.405	0.39	0.427	–	0.368	1.11	1.32	1.35	1.11	0.601
IA-LM	0.906	0.976	0.871	0.796	0.75	0.763	0.775	0.736	0.656	0.496	–	–	–	–	–	1.21	1.51	1.45	1.06	0.132
LC-2-ad	0.621	0.751	0.73	0.625	0.685	0.479	0.566	0.451	0.357	0.311	0.906	0.718	0.942	0.864	0.827	0.892	0.863	1.09	0.63	0.361
LCLC-97TM1	0.504	0.548	0.353	0.257	0.437	0.336	0.416	0.525	0.263	0.305	0.215	0.174	0.156	0.171	0.196	0.928	0.948	0.933	0.856	0.56
LCLC-103H	0.743	0.776	0.771	0.689	0.758	0.991	0.973	1.01	0.924	0.932	0.658	0.56	0.688	0.632	0.647	0.869	1.03	0.95	0.665	0.693
LK-2	0.63	0.721	0.683	0.415	0.389	0.249	0.224	0.222	0.234	0.257	0.892	0.626	0.599	0.39	0.643	1.25	1.21	1.43	1.2	0.617
NCI-H522	0.895	0.588	0.554	0.512	0.57	–	–	–	–	–	0.918	0.784	0.714	0.613	0.582	–	–	–	–	–
NCI-H1299	0.915	1.03	1	0.976	0.93	0.96	0.975	1	0.949	0.931	–	–	–	–	–	1.14	1.13	1.14	1.09	0.584
NCI-H1395	0.451	–	0.441	0.454	0.444	–	–	–	–	–	1	–	1.05	0.961	1.03	1.06	0.998	1.03	0.866	0.356
NCI-H1563	–	–	–	–	–	0.886	0.847	0.852	0.818	0.955	–	–	–	–	–	0.895	0.879	0.984	0.845	0.798
NCI-H1623	–	–	–	–	–	–	–	–	–	–	–	–	–	–	–	0.929	1.03	0.887	0.823	0.62
NCI-H1648	0.766	0.941	1.31	0.377	0.399	–	–	–	–	–	0.517	0.482	0.53	0.388	0.385	–	–	–	–	–
NCI-H1703	0.479	–	0.448	0.755	0.189	0.585	–	0.595	0.93	0.35	–	–	–	–	–	0.331	0.372	0.346	0.16	0.157
NCI-H1792	0.341	0.348	0.373	0.298	0.172	1.01	0.96	0.951	0.764	0.746	0.506	0.432	0.335	0.32	0.335	–	–	–	–	–
NCI-H1793	0.772	0.841	0.628	0.666	0.697	–	–	–	–	–	0.414	0.479	0.457	0.36	0.395	0.711	0.585	0.958	0.637	0.194
NCI-H2342	0.532	0.565	0.481	0.438	0.407	–	–	–	–	–	0.788	0.886	0.791	0.777	0.729	1.16	1	1	1.09	0.793
SW 900	0.685	0.872	0.821	0.793	0.667	–	–	–	–	–	0.741	0.986	0.762	0.72	0.674	0.813	0.76	0.927	0.854	0.204
